How the values were obtained:
[1] = test system: primary mouse hepatocytes; assay: Gene expression in primary mouse hepatocytes, GTX vs non-GTX (four-gene classifier, 24 h)
Procedure: Hepatocyte cells were incubated and exposed to a compound for 24 h before being harvested for RNA isolation.
The results of the gene expression analysis may then be fed into a statistical software package such as R, Splus, or Microsoft Excel. […] If none or only one of these criteria were met, no point was scored.
For each of the four genes mentioned in the table (1700007K13RIK, GAS2L3, SPC25, DDIT4L), a statistical comparison was made between the normalized expression data for these genes. […] If none or only one of these criteria were met, no point was scored.
For each compound, the sum of the scores for four genes is taken. If this score is 0, a compound can be believed not to be genotoxic. If this score is 1, 2, 3 or 4, a compound is genotoxic.
If none or only one of these criteria were met, no point was scored.

[2] = test system: primary mouse hepatocytes; assay: Gene expression (Affymetrix Mouse Genome 430 2.0) in primary mouse hepatocytes, true vs false GTX, 24 h and 48 h; conditions: log2, corrected for vehicle control
[3] = 24 h exposure, average of four replicates
[4] = log 2 ratio, 24 h exposure, concentration per Table 4

CN(C)N=O [DMN, Dimethylnitrosamine]
score 1700007K13RIK [1, 3]: 1 | score DDIT4L [1, 3]: 0 | score GAS2L3 [1, 3]: 0 | score SPC25 [1, 3]: 0 | Ratios of gene expression treated/untreated 1700007K13RIK [1, 4]: 2.141 | Ratios of gene expression treated/untreated DDIT4L [1, 4]: 0.7662 | Ratios of gene expression treated/untreated GAS2L3 [1, 4]: 0.2166 | Ratios of gene expression treated/untreated SPC25 [1, 4]: 0.8368 | Total score ([1]; sum of scores for four genes, 0 = not genotoxic, 1, 2, 3 or 4 = genotoxic): 1 | Gene expression data AF000969 (Cadps2) ([2]; 24 h average): −1.039 | Gene expression data AF022072 (Grb10) ([2]; 24 h average): −1.913 | Gene expression data AF065917 (Lif) ([2]; 24 h average): 1.804 | Gene expression data AF204959 (Cyp3a25 /// LOC622249) ([2]; 24 h average): −0.2993 | Gene expression data AF297615 (Ggta1) ([2]; 24 h average): 3.2188 | Gene expression data AI594683 (Dmn) ([2]; 24 h average): 3.164 | Gene expression data AI596632 (Ptprg /// LOC632664) ([2]; 24 h average): −1.9 | Gene expression data AI987929 (Ndrg1) ([2]; 24 h average): −0.9838 | Gene expression data AK004419 (Fbxl17) ([2]; 24 h average): −1.22 | Gene expression data AK005731 (1700007K13Rik) ([2]; 24 h average): 5.486 | Gene expression data AK007766 (1810044A24Rik) ([2]; 24 h average): −0.8706 | Gene expression data AK007854 (1810053B23Rik) ([2]; 24 h average): 2.173 | Gene expression data AK009736 (Gpr137b /// LOC664862 /// LOC673335) ([2]; 24 h average): −0.8367 | Gene expression data AK010447 (Smyd3) ([2]; 24 h average): −1.0358 | Gene expression data AK014608 (4632434l11Rik) ([2]; 24 h average): 1.756 | Gene expression data AK019979 (2610528E23Rik) ([2]; 24 h average): −1.324 | Gene expression data AV095209 (Mthfd1l) ([2]; 24 h average): −1.007 | Gene expression data AV141095 (1110033M05Rik) ([2]; 24 h average): −1.375 | Gene expression data AV173571 (1700106N22Rik) ([2]; 24 h average): −1.0106 | Gene expression data AV219418 (Ldhb) ([2]; 24 h average): 2.743 | Gene expression data AV223474 (Zdhhc14) ([2]; 24 h average): −0.9067 | Gene expression data AV298304 (Homez) ([2]; 24 h average): 1.8715 | Gene expression data AV327248 (Zfp365 /// LOC674611) ([2]; 24 h average): 4.114 | Gene expression data AV377066 (9130221J18Rik) ([2]; 24 h average): 0.9605 | Gene expression data AW240761 (Tbc1d5) ([2]; 24 h average): −1.191 | Gene expression data AW543460 (Pard3) ([2]; 24 h average): −1.4802 | Gene expression data AW543723 ([2]; 24 h average): 1.95 | Gene expression data AW986246 (Maoa) ([2]; 24 h average): −0.372 | Gene expression data BB027848 (4732466D17Rik) ([2]; 24 h average): 1.126 | Gene expression data BB043558 (9230114K14Rik) ([2]; 24 h average): 2.407 | Gene expression data BB275142 (AW456874) ([2]; 24 h average): 1.902 | Gene expression data BB308836 (Ppm1l) ([2]; 24 h average): −0.9881 | Gene expression data BB318221 (Zdhhc14) ([2]; 24 h average): −1.041 | Gene expression data BB463610 (4632434l11Rik) ([2]; 24 h average): 1.9965 | Gene expression data BB526605 (Mipol1) ([2]; 24 h average): −1.5816 | Gene expression data BB770528 (Rai2) ([2]; 24 h average): 2.8 | Gene expression data BB821363 (Scfd2) ([2]; 24 h average): −1.143 | Gene expression data BC004827 (Psat1) ([2]; 24 h average): −1.518 | Gene expression data BC008626 (Icam1) ([2]; 24 h average): 2.035 | Gene expression data BC010462 (BC010462) ([2]; 24 h average): 0.7519 | Gene expression data BC012247 (Dcxr) ([2]; 24 h average): 1.6567 | Gene expression data BC012260 (Psmf1) ([2]; 24 h average): 1.0548 | Gene expression data BC015270 (Hist2h3c2) ([2]; 24 h average): 0.9816 | Gene expression data BC016073 (Cdkal1) ([2]; 24 h average): −1.243 | Gene expression data BC016265 (Ube2e2) ([2]; 24 h average): −1.287 | Gene expression data BC019882 (Acaa1b) ([2]; 24 h average): 2.057 | Gene expression data BC025501 (Aaas) ([2]; 24 h average): 1.6386 | Gene expression data BC025837 (Sbk1) ([2]; 24 h average): 0.9087 | Gene expression data BC025915 (Cova1) ([2]; 24 h average): −0.9502 | Gene expression data BC026422 (Tgm1) ([2]; 24 h average): 2.22 | Gene expression data BF719766 (Thyn1) ([2]; 24 h average): 1.824 | Gene expression data BG065754 (Ccng1) ([2]; 24 h average): 0.9587 | Gene expression data BG066903 (Kif16b) ([2]; 24 h average): −0.8682 | Gene expression data BG069873 (Gnb1l) ([2]; 24 h average): 2.2987 | Gene expression data BG070887 (Gtdc1) ([2]; 24 h average): −1.112 | Gene expression data BG076151 (Ppm1d) ([2]; 24 h average): 1.946 | Gene expression data BG261907 (Large) ([2]; 24 h average): −1.3871 | Gene expression data BI651416 (Cdc42bpg) ([2]; 24 h average): 1.7218 | Gene expression data BI660702 (Ell3) ([2]; 24 h average): 2.514 | Gene expression data BM198879 (Ercc5) ([2]; 24 h average): 1.2634 | Gene expression data BM230508 (A030007D23Rik) ([2]; 24 h average): 2.304 | Gene expression data NM_007987 (Fas) ([2]; 24 h average): 2.421 | Gene expression data NM_008522 (Ltf) ([2]; 24 h average): 3.616 | Gene expression data NM_008576 (Abcc1) ([2]; 24 h average): −0.9295 | Gene expression data NM_011176 (St14) ([2]; 24 h average): 1.574 | Gene expression data NM_011316 (Saa4) ([2]; 24 h average): 2.1585 | Gene expression data NM_012006 (Acot1) ([2]; 24 h average): 2.033 | Gene expression data NM_013866 (Zfp385) ([2]; 24 h average): 2.361 | Gene expression data NM_018770 (Igsf4a) ([2]; 24 h average): −0.8412 | Gene expression data NM_021451 (Pmaip1) ([2]; 24 h average): 3.698 | Gene expression data NM_025770 (Atg10) ([2]; 24 h average): −0.5113 | Gene expression data NM_028803 (Gbe1) ([2]; 24 h average): −1.103 | Gene expression data NM_030697 (Ankrd47) ([2]; 24 h average): 3.211 | Gene expression data NM_053168 (Trim11) ([2]; 24 h average): 1.0583 | Gene expression data NM_134188 (Acot2) ([2]; 24 h average): −0.5001 | Gene expression data Y15910 (Diap2) ([2]; 24 h average): −1.636 | Gene expression AA561726 average ([2]; 48 h): −0.3534 | Gene expression AF000969 average ([2]; 48 h): −1.114 | Gene expression AF022072 average ([2]; 48 h): −1.2797 | Gene expression AF033112 average ([2]; 48 h): 1.817 | Gene expression AF055573 average ([2]; 48 h): −1.913 | Gene expression AF069954 average ([2]; 48 h): 1.631
